{"source": "patent US11298400B2", "about": "“Method of enhancing the therapeutic efficacy of fexapotide triflutate in treating LUTS” (Nymox Corporation, priority 2019, dated 2022)", "key": {"[1]": {"tested_on": "Patients with BPH and who optionally also had LUTS", "test": "Clinical trial: urinary peak flow rate (Qmax) mean change from baseline", "format": "in vivo, human", "conditions": "for improvement in peak flow rate mean change from baseline: FT twice over at least one year; for Mean Change of Qmax from baseline: intraprostatic", "protocol": "(§1) Clinical trials were conducted on numerous individuals having BPH, some of whom also had LUTS. All protocols were done in accordance with applicable regulations, and carried out by physicians.\nPatients were followed for >=3 months to several years with regular physical examinations, laboratory tests, and evaluations of symptoms. Urinary peak flow (Qmax) was measured by flow-meter readings using standard techniques, at 3 months and at 12 months or longer in subjects who were able to urinate adequate volume of urine (>125 mL) to provide a valid test. All peak flow measurements were assessed by a blinded central reader. The mean peak flow rate change from baseline was compared in different groups."}, "[2]": {"tested_on": "Patients with BPH and who optionally also had LUTS", "test": "Clinical trial: inability to provide urine volume >125 mL (Qmax unable) after intraprostatic injection", "format": "in vivo, human", "conditions": "for improvement in percentage of patients with Qmax failures: FT twice over at least one year; for % of Patients With Inability to Provide Urine Volume >125 mL: intraprostatic", "protocol": "as §1\nPatients with BPH and who optionally also had LUTS were given an intraprostatic injection of either a) FT 2.5 mg in phosphate buffered saline pH 7.2 (“PBS”) or b) PBS alone, under double-blind conditions by a urologist in an office setting under ultrasound guidance. Patients were followed for >=3 months to several years with regular physical examinations, laboratory tests, and evaluations of symptoms. […] Subjects who were unable to void >=125 mL despite drinking as much water as they wanted were classified as “Qmax unable”. The numbers of subjects who became Qmax unable was compared in different groups."}, "[3]": {"tested_on": "prostate glandular epithelial cells", "test": "Tissue culture genetic array, in vitro", "format": "cell-based", "conditions": "tissue culture genetic array data", "source_text": "FT selectively causes loss of cell membrane integrity, mitochondrial metabolic arrest, depletion of RNA, DNA lysis and aggregation, and cell fragmentation and cell loss. The apoptotic process leads to typical ultrastructural progressive changes of membranous disruption and swelling, progressively deepening nuclear invaginations with eventual membranous bleb formations and cell death and fragmentation into apoptotic bodies. Histologically, typical apoptotic changes with positive immunohistochemical staining of markers for apoptosis are found throughout the injected areas for up to several weeks after treatment."}, "[4]": {"tested_on": "Patients with BPH and who optionally also had LUTS", "test": "Clinical trial: nocturia score (IPSS question 7) mean change from baseline", "format": "in vivo, human", "conditions": "for improvement in nocturia score mean change from baseline: FT twice over at least one year; for Nocturia Score Mean Change From Baseline: intraprostatic, IPSS question 7, (SD)", "source_text": "Improvements in obstructive and irritative symptoms can be measured in accordance with techniques known in the art. For example, uroflowmeters are known to differentiate urine weight change to provide a continuous plot of the flow rate vs. time that is smoothed by internal electronic filtering to permit precise (±5%) measurement of Qmax. Schafer W, et al. “Good urodynamic practices: Uroflowmetry, filling cystometry and pressure-flow studies,” Neurourol Urodynamics, Vol. 21, pp. 261-74 (2002). Nocturia can be measured in a variety of manners, most of which involve patients completing a questionnaire before and after treatment to establish a baseline, and then determine the difference (improvement, lack of improvement, worsening, etc.) from baseline after treatment. Exemplary questionnaires include evaluating the scores from the nocturia question included in the International Prostate Symptom Score (IPSS), assessing the number of nocturnal voids (Boyarsky symptom score), the Madsen-Iversen Symptom Score, and the ICSmale questionnaire. See, e.g., Chartier-Kastler, et al., “The Measurement of Nocturia and its Impact on Quality of Sleep and Quality of Life in LUTS/BPH,” Eur. Urol. Supp., Vol. 5, pp. 3-11 (2006). A preferred method of measuring nocturia is by determining the mean change from baseline of the nocturia question in the IPSS (question 7). Question 7 solicits from the patient how many times over the past month they had to get up to urinate from the time they went to bed until the time they got up—the score ranging from none (score 0) to 5 or more times (score 5).\nas §1\nPatients with BPH and who optionally also had LUTS were given an intraprostatic injection of either a) FT2.5 in 10 mL phosphate buffered saline pH 7.2 (“PBS”) or b) FT 5.0 mg in PBS or c) FT 2.5 mg in PBS 2-dosages given >1 year apart, or d) PBS 10 mL alone, under double-blind conditions by a urologist in an office setting under ultrasound guidance. Patients were followed for >=3 months to several years with regular physical examinations, laboratory tests, and evaluations of symptoms. The mean difference from baseline nocturia scores to follow-up scores (nocturia scores are the values provided to question #7 in the IPSS) were calculated in FT treated subjects given single dose FT 2.5 mg, single dose FT 0.5 mg, 2-dose 2.5 mg>1 year apart, and Placebo treated controls."}, "[5]": {"conditions": "compared to a single administration of four times the amount"}, "[6]": {"conditions": "compared to a single administration of twice the amount"}, "[7]": {"conditions": "Two Doses of 2.5 mg FT > 1 year apart"}}, "note": "Marks after values point to notes of the source that are not given here. Ends that are not written are not given here."}
{"substance": "Fexapotide Triflutate (IDQQVLSRIKLEIKRCL; also: trifluoroacetate salt) [FT]", "values": [{"measurement": "improvement in peak flow rate mean change from baseline", "setting": "[1]; [5]", "result": "about 47%"}, {"measurement": "improvement in peak flow rate mean change from baseline", "setting": "[1]; [6]", "result": "about 102%"}, {"measurement": "improvement in peak flow rate mean change from baseline", "setting": "[1]; compared to the control", "result": "about 111%"}, {"measurement": "Mean Change of Qmax from baseline", "setting": "[1]; Single Dose of 5.0 mg FT", "result": 1.28, "unit": "mL/s"}, {"measurement": "Mean Change of Qmax from baseline", "setting": "[1]; Single Dose of 10.0 mg FT", "result": 1.76, "unit": "mL/s"}, {"measurement": "Mean Change of Qmax from baseline", "setting": "[1]; [7]", "result": 2.59, "unit": "mL/s"}, {"measurement": "inhibition of the progression of urinary flow worsening", "setting": "[2]; 2 single dosages of 2.5 mg separated by >1 year, vs one-time 5.0 mg or 10.0 mg dose", "result": "significantly better inhibition"}, {"measurement": "improvement in percentage of patients with Qmax failures", "setting": "[2]; [5]", "result": "about 83.3%"}, {"measurement": "improvement in percentage of patients with Qmax failures", "setting": "[2]; [6]", "result": "about 81.4%"}, {"measurement": "improvement in percentage of patients with Qmax failures", "setting": "[2]; compared to the control", "result": "about 77%"}, {"measurement": "% of Patients With Inability to Provide Urine Volume >125 mL", "setting": "[2]; Single Dose of 5.0 mg FT, 90 days after last treatment", "result": "21%* (90 days)"}, {"measurement": "% of Patients With Inability to Provide Urine Volume >125 mL", "setting": "[2]; Single Dose of 10.0 mg FT, 90 days after last treatment", "result": "23.3%** (90 days)"}, {"measurement": "% of Patients With Inability to Provide Urine Volume >125 mL", "setting": "[2]; Two Doses of 2.5 mg FT > 1 year apart, 180 days after last treatment", "result": "3.9% (180 days)"}, {"measurement": "inhibition of the progression of urinary flow worsening", "setting": "[2]; double (two 2.5 mg doses) or 4X (four 2.5 mg doses) single dose, vs single dose 2.5 mg", "result": "did not have significantly better response than single dose 2.5 mg"}, {"measurement": "inhibition of the progression of urinary flow worsening", "setting": "[2]; single dose of FT 2.5 mg, after 3 months, vs control groups", "result": "not significantly better than control groups"}, {"measurement": "effect on caspase, tumor necrosis factor and BCL pathways", "setting": "[3]", "result": "stimulates caspase pathways"}, {"measurement": "improvement in nocturia score mean change from baseline", "setting": "[4]; compared to a single administration of the same individual amount", "result": "about 37%"}, {"measurement": "improvement in nocturia score mean change from baseline", "setting": "[4]; compared to a single administration of twice the individual amount", "result": "about 19.4%"}, {"measurement": "improvement in nocturia score mean change from baseline", "setting": "[4]; compared to the control", "result": "about 48%"}, {"measurement": "Nocturia Score Mean Change From Baseline", "setting": "[4]; Single Dose of 5.0 mg FT", "result": "−0.54 (SD 1.1)*"}, {"measurement": "Nocturia Score Mean Change From Baseline", "setting": "[4]; Single Dose of 10.0 mg FT", "result": "−0.62 (SD 1.64)*"}, {"measurement": "Nocturia Score Mean Change From Baseline", "setting": "[4]; [7]", "result": "−0.74 (SD 1.26)**, ***"}]}
